In ChEMBL document CHEMBL3585333, “Higenamine 4'-O-β-d-glucoside in the lotus plumule induces glucose uptake of L6 cells through β2-adrenergic receptor” (Bioorg Med Chem, 2015):
Activity calls are given as the source filed them. The rule behind the calls is not given here.

Columns and labels:
Type in all cases: cell-based
[1] = biological target: Beta-2 adrenergic receptor (Rattus norvegicus) (UniProt P10608); assay: Activation of beta-2 adrenergic receptor in rat L6 cells assessed as enhancement of 2-deoxyglucose uptake at 10 uM preincubated for 4 hrs followed by 2-deoxyglucose addition measured after 20 mins by fluorescence assay in presence of non-selective beta-adrenergic receptor antagonist propranolol
Sequence of Beta-2 adrenergic receptor (Rattus norvegicus) (P10608 whole entry, looked up): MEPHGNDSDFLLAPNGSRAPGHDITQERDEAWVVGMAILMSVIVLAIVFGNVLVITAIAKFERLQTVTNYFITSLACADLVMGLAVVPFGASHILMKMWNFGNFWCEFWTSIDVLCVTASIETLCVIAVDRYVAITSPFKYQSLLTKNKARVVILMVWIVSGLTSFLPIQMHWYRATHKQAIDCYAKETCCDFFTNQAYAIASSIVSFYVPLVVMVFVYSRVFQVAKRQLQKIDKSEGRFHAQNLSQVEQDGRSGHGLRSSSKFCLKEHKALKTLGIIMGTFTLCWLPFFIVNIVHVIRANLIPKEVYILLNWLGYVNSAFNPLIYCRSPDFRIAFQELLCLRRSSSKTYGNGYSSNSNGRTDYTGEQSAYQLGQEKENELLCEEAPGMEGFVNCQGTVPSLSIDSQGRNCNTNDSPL

[2] = biological target: Beta-2 adrenergic receptor (Rattus norvegicus) (UniProt P10608); assay: Activation of beta-2 adrenergic receptor in rat L6 cells assessed as enhancement of 2-deoxyglucose uptake at 10 uM preincubated for 4 hrs followed by 2-deoxyglucose addition measured after 20 mins by fluorescence assay relative to control
[3] = biological target: Beta-2 adrenergic receptor (Rattus norvegicus) (UniProt P10608); assay: Activation of beta-2 adrenergic receptor in rat L6 cells assessed as enhancement of 2-deoxyglucose uptake at 10 uM preincubated for 4 hrs followed by 2-deoxyglucose addition measured after 20 mins by fluorescence assay in presence of AMPK inhibitor dorsomorphin
[4] = biological target: Beta-2 adrenergic receptor (Rattus norvegicus) (UniProt P10608); assay: Activation of beta-2 adrenergic receptor in rat L6 cells assessed as enhancement of 2-deoxyglucose uptake preincubated for 4 hrs followed by 2-deoxyglucose addition measured after 20 mins by fluorescence assay
[5] = biological target: Beta-2 adrenergic receptor (Rattus norvegicus) (UniProt P10608); assay: Activation of beta-2 adrenergic receptor in rat L6 cells assessed as enhancement of 2-deoxyglucose uptake at 10 uM preincubated for 4 hrs followed by 2-deoxyglucose addition measured after 20 mins by fluorescence assay in presence of beta-2 selective adrenergic receptor antagonist ICI118551
[6] = biological target: Beta-2 adrenergic receptor (Rattus norvegicus) (UniProt P10608); assay: Activation of beta-2 adrenergic receptor in rat L6 cells assessed as enhancement of 2-deoxyglucose uptake at 10 uM preincubated for 4 hrs followed by 2-deoxyglucose addition measured after 20 mins by fluorescence assay in presence of PI3K inhibitor LY294002

Structure (SMILES): OC[C@H]1O[C@@H](Oc2ccc(C[C@@H]3NCCc4cc(O)c(O)cc43)cc2)[C@H](O)[C@@H](O)[C@@H]1O
- Activity [1]: inactive
- fold change (FC) [2]: 2.1
- Activity [3]: Active
- Activity [4]: Dose-dependent effect
- Activity [5]: inactive
- Activity [6]: Active
